From patent US20100179158A1, “INHIBITORS OF CYCLIC AMP PHOSPHODIESTERASES” (priority 2007, published 2010)
Entries after “also recorded” stand apart in the source; their conditions may differ.

Tests used:
PDE4A5 = target: T1, PDE4A5 (Rattus norvegicus, UniProt P54748); assay: cAMP assay in yeast strain expressing PDE4A5; format: cell-based
T1 construct: targets used in the assays are full-length proteins (as opposed to simply the catalytic domain); expressed in transfected cells; host or cells: Schizosaccharomyces pombe, gene integrated at the cgs2 locus
T1 sequence (P54748 1-844): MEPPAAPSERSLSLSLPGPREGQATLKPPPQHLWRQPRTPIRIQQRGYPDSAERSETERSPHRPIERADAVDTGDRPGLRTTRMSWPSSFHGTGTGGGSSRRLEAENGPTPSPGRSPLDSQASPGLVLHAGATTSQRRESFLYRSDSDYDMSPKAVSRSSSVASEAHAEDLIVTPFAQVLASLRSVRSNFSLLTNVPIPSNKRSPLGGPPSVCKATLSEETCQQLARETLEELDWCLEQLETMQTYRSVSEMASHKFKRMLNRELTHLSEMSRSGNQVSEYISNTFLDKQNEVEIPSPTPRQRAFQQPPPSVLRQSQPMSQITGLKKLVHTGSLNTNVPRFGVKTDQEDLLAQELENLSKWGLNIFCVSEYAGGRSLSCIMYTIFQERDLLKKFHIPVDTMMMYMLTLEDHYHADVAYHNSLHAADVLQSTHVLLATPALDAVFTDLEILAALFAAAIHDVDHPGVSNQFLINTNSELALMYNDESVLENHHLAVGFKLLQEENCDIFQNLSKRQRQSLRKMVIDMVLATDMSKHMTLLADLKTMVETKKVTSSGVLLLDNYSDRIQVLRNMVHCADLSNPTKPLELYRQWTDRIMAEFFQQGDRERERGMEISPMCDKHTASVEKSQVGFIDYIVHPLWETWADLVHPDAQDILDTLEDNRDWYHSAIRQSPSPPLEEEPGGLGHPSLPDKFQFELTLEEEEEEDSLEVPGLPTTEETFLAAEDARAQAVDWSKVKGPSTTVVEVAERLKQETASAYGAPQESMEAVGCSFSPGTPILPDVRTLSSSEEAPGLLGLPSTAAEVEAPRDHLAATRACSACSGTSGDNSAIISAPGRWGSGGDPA

PDE4D3 [1] = target: T2, PDE4D3 (Homo sapiens, UniProt Q08499); assay: IC50 on PDE4D3; format: biochemical; details: read-out: IC50, PDE 4D3
T2 construct: targets used in the assays are full-length proteins (as opposed to simply the catalytic domain); expressed in transfected cells; host or cells: Schizosaccharomyces pombe, gene integrated at the cgs2 locus

PDE4D3 [2] = target: T2, PDE4D3; assay: cAMP assay in yeast strain expressing PDE4D3; format: cell-based
[3] = test system: PDE4A, PDE4B, PDE4D, PDE7A; assay: Overall PDE inhibitor profile from the yeast assays (table footnotes, summary); format: cell-based
From the text: PDE inhibitors were identified using methods described herein, such as high throughput drug screens on genetically engineered fission yeast strains that express drug targets (e.g., PDE4A and/or PDE4B, which are anti-inflammatory targets). PDE inhibitors were identified based on their ability to stimulate growth and compounds were identified because they were effective in live cells. In addition, targets used in the assays are full-length proteins (as opposed to simply the catalytic domain) and the assay used included a built-in toxicity test, permeability test and stability test. The inhibitors identified display a very high degree of target specificity. Compounds identified include inhibitors that act on two of three PDE4 family enzymes and inhibitors that act on combinations of PDE4 and PDE7 strains. […] Limited inhibition of PDE4D by a PDE inhibitor is desirable, in view of the fact that inhibition of PDE4D causes emesis and cardiac arrhythmias. Subtype specificity was confirmed by means of cAMP assays.
Cells were pregrown in EMM medium [MP Biomedicals (Solon, OH), 3% glucose, filter-sterilized to avoid carmelization, which would introduce variability into the optical density of the medium] containing from 0 mM to 2.5 mM cAMP (or either 0.5 mM or 1.0 mM cGMP). This was to repress expression of the fbp1-ura4 reporter prior to exposure of cells to 5FOA medium. Cells were grown at 30° C. to exponential phase (approximately 10^7 cells/ml). Cells were collected by centrifugation and resuspended in 5FOA medium, and 25 μl were transferred to 384-well microtiter dishes (untreated, with flat clear bottoms) that had been pre-filled with 25 μl 5FOA medium and pre-pinned with 100 nl of compounds (stock solutions were generally 10 mM). Starting cell concentrations ranged from 0.5×10^5 to 4×10^5 cells/ml depending on the screening strain. […] Other positive control dishes contained 5 mM cAMP in the 5FOA medium for PDEs that lack appropriate control compounds. Cultures were grown for 48 hours at 30° C., sealed in an airtight container with moist paper towels to prevent evaporation. Optical densities (OD600) of cultures were measured using a microplate reader. Bioinformatic analysis of the results to determine composite Z scores was performed as previously described (1, 3).

PDE4A1 [4] = target: T3, PDE4A1 (Mus musculus, UniProt O89084); assay: IC50 on PDE4A1; format: biochemical, murine; details: read-out: IC50, PDE 4A1
T3 construct: targets used in the assays are full-length proteins (as opposed to simply the catalytic domain); expressed in transfected cells; host or cells: Schizosaccharomyces pombe, gene integrated at the cgs2 locus
T3 sequence (O89084 1-610 isoform O89084-2): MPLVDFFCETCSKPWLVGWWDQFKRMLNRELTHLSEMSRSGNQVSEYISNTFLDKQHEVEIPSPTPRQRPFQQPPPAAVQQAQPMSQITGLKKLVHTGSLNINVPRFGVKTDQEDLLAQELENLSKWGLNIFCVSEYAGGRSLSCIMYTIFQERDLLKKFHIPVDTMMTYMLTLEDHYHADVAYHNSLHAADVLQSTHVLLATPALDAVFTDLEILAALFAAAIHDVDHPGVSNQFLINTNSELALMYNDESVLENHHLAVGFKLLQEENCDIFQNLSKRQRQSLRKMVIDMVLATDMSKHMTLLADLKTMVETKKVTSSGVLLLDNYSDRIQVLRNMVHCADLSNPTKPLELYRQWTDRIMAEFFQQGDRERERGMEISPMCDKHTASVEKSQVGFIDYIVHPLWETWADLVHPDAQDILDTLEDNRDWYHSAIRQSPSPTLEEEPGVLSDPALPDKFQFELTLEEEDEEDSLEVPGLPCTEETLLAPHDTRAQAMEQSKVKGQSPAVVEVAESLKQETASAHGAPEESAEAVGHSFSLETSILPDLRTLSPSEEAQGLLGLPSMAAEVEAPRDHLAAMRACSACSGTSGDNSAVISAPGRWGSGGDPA

PDE4B3 = target: T4, PDE4B3 (Mus musculus, UniProt Q8VBU5); assay: cAMP assay in yeast strain expressing PDE4B3; format: cell-based, murine
T4 construct: targets used in the assays are full-length proteins (as opposed to simply the catalytic domain); expressed in transfected cells; host or cells: Schizosaccharomyces pombe, gene integrated at the cgs2 locus
T4 sequence (Q8VBU5 1-721): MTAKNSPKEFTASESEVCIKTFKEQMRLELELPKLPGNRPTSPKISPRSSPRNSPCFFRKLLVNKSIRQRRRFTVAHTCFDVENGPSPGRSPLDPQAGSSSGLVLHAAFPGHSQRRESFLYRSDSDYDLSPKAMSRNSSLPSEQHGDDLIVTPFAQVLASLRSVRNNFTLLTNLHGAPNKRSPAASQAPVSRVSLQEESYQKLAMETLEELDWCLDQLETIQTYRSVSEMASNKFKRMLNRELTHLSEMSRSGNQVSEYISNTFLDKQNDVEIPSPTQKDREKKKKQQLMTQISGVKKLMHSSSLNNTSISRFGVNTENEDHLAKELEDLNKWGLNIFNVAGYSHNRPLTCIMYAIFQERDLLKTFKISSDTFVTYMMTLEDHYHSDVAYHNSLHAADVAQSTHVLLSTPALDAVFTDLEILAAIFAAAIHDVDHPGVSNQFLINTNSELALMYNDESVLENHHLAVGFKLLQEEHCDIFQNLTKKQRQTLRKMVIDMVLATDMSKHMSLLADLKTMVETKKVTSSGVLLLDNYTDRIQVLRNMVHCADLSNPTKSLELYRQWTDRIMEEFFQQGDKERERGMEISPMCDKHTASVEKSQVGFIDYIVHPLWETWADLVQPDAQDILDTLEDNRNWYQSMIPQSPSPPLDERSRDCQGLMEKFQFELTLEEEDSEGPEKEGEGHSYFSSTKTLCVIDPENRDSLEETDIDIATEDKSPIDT

PDE4A1 [5] = target: T3, PDE4A1; assay: cAMP assay in yeast strain expressing PDE4A1; format: cell-based, murine
PDE4D2 = target: T5, PDE4D2 (Homo sapiens, UniProt Q08499); assay: cAMP assay in yeast strain expressing PDE4D2; format: cell-based
T5 construct: targets used in the assays are full-length proteins (as opposed to simply the catalytic domain); expressed in transfected cells; host or cells: Schizosaccharomyces pombe
T5 sequence (Q08499 303-809): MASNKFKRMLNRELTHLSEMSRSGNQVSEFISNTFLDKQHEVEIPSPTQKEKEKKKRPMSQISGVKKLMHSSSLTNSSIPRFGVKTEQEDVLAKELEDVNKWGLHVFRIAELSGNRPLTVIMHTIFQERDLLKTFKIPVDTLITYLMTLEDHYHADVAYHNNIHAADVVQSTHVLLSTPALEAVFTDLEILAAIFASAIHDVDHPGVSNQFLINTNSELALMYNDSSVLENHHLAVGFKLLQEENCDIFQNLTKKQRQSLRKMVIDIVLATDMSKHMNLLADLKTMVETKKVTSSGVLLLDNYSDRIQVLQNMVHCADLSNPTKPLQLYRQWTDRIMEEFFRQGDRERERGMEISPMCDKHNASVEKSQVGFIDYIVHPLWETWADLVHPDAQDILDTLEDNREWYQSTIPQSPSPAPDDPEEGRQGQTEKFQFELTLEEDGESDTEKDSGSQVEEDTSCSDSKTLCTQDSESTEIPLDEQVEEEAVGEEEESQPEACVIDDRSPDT

T2 sequence (Q08499 1-673 isoform Q08499-2): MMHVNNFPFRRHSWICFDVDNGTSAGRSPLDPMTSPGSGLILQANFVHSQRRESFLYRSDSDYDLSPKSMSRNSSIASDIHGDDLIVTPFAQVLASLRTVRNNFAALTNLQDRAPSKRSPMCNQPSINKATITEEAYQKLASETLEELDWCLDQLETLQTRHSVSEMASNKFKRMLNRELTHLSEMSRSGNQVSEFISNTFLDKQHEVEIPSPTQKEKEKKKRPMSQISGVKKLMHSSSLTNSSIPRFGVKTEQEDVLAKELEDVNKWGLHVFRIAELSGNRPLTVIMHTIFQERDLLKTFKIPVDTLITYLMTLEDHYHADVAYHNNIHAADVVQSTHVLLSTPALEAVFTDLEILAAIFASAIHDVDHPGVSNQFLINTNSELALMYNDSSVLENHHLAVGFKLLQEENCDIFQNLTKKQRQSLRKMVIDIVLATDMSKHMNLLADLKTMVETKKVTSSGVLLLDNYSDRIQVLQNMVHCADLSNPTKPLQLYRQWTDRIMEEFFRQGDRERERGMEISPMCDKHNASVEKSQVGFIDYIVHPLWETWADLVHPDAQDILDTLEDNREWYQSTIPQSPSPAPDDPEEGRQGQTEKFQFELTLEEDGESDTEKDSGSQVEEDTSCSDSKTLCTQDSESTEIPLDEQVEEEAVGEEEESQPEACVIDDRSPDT

cAMP Response (% rolipram), PDE 4A5 (PDE4A5): 57.30 % rolipram | IC50 (PDE4D3 [1]): 500 nM | cAMP Response (% rolipram), PDE 4D3 (PDE4D3 [2]): 14.00 % rolipram | IC50 (PDE4A1 [4]): 500 nM | cAMP Response (% rolipram), PDE 4B3 (PDE4B3): 92.00 % rolipram | cAMP Response (% rolipram), PDE 4A1 (PDE4A1 [5]): 96.00 % rolipram | cAMP Response (% rolipram), PDE 4D2 (PDE4D2): ND ND ND 17.00 ND % rolipram
SMILES: Cc1cc(C)nc(SCCS(=O)(=O)c2ccc(C(C)(C)C)cc2)n1 [Compound 26]
PDE inhibitor profile in words (table footnote / summary) [3]: effective PDE4A/4B inhibitor that exhibits limited/essentially no inhibition of PDE4D; also recorded: effective PDE4A/4B inhibitor; also recorded: little or no inhibition of PDE4D; also recorded: (1) Strong PDE4A, 4B inhibitor
